Like-named read-outs stand apart in the source and are kept apart here.
Key:
HIV-1IIIB = experiment: HIV-1 full replication assay (HIV-1IIIB-infected MT-2 cells, supernatant read out on TZM-bl cells, β-Gal); type: cell-based
Description: The antiviral activity of the compounds of the present invention was determined in a HIV-1 full replication assay.
In this assay, MT-2 cells that are infected with HIV-1IIIB were co-cultured with different concentration of the tested compounds for 3 days and then supernatant is transferred into new 384-well plates containing TZM-bl cells (also called JC53-bl). TZM-bl cells that could be infected by various kinds of HIV-1 strains stably express a great amount of HIV-1 receptor, co-receptor CD4 molecular, and co-receptor CXCR4 and CCR5. TZM-bl cells harbor LTR-luciferase and β-gal two report genes. The expression of luciferase and β-gal reporter directed by HIV-1 LTR can be activated by Tat protein generated after HIV infection, and the quantity of expression is proportional to the quantity of HIV-1. Compounds that interfere with virus replication in MT-2 cells, maturation of the virus, or post-entry steps in the HIV lifecycle decrease the luciferase signal or β-gal signal. In this experiment, BVM (Bevirimat, PA-457) is used as a positive control drug.
Method for Inhibiting HIV-1 Replication Assay:
The MT-2 cells are infected at a Multiciplicity (MOI) of 0.01 TCID50, and then the MT-2 cells suspension was diluted to a needed concentration. 90 μl of the MT-2 cells suspension from above was added into 384-well plates containing 10 μl of the tested compounds.
Compounds were dissolved in DMSO and tested as 11 points 3-fold serial dilutions. After addition of cells to compound plates, plates were placed to humidified 5% CO2 37 incubator for 3 days. 10 μl of cells culture supernatant from the incubated plates was transferred into new black 384-well plates.
Adjusted the TZMb1 cells concentration and 40 μl of TZMb1 cells was added into each well in the black 384-well plates. After addition of the TZMb1 cells to the black plates, black plates were placed to humidified 5% CO2 37 incubator for 24 h, then β-Gal activity was measured.
The anti viral activity %=(measured number-lowest mean number)/(highest mean number-lowest mean number)×100. The IC50 values were calculated by Median Equation and the IC curve was generated by Graphpad Prism V 5.03.
(§1) TC50 is referred to the toxicity in MT-2 cells by the compounds tested at 50% concentration; IC50 is referred to the inhibiting HIV-1IIIB replication in MT-2 cells by the compounds tested at 50% concentration; Therapeutic Index (TI)=TC50/IC50.

MT-2 cells = experiment: Compounds' cytotoxicity assay in MT-2 cells (CellTiter-Glo); type: cell-based; parameters: unit not given here; conditions: toxicity in MT-2 cells, 3 days
Description: 3. Method for Compounds' Cytotoxicity Assay:
The MT-2 cells are diluted to a needed concentration. 90 μl of the MT-2 cells suspension was added into 384-well plates containing 10 μl of the tested compounds. Compounds were dissolved in DMSO and tested as 11 points 3-fold serial dilutions. After addition of cells to compound plates, plates were placed to humidified 5% CO2 37 incubator for 3 days. The Luciferase activity was measured by CellTiter-Glo® Luminescent Cell Viability Assay kit (Promega Corp., WI, USA).
as §1

[1] = Human immunodeficiency virus 1, MT2, HIV replication in MT-2 cell (HIV-1IIIB) assay, read-out: IC50
[2] = Human immunodeficiency virus 1, MT2, 72 h, inhibiting HIV-1IIIB replication in MT-2 cells, 3 days, read-out: IC50 (PM)

SMILES	IC50 (HIV-1IIIB; [1]) [nM]	IC50 (HIV-1IIIB; [2]) [nM]	TC50 (PM) (MT-2 cells)	IC50 (HIV-1IIIB; Human immunodeficiency virus 1, MT2, 72 h, read-out: IC50 (PM)) [nM]
CC(C)C1=C2[C@H]3CC[C@@H]4[C@@]5(C)CC[C@H](OC(=O)CC(C)(C)C(=O)O)C(C)(C)[C@@H]5CC[C@@]4(C)[C@]3(C)CC[C@@]2(c2cc(=O)n(CCN(C)C)n2C)CC1=O [Compound 91-4]	< 2	–	–	–
CC(C)C1=C2[C@H]3CC[C@@H]4[C@@]5(C)CC[C@H](OC(=O)CC(C)(C)C(=O)O)C(C)(C)[C@@H]5CC[C@@]4(C)[C@]3(C)CC[C@@]2(Nc2nnc(-c3ccc(Cl)cn3)o2)CC1=O [Compound 141-2]	–	0.26	24	–
CC(C)C1=C2[C@H]3CC[C@@H]4[C@@]5(C)CC[C@H](OC(=O)CC(C)(C)C(=O)O)C(C)(C)[C@@H]5CC[C@@]4(C)[C@]3(C)CC[C@@]2(Cc2nnc(-c3ccc(F)cn3)o2)CC1=O [Compound 22-18]	–	1.7	48	–
CC(C)C1=C2[C@H]3CC[C@@H]4[C@@]5(C)CC[C@H](OC(=O)CC(C)(C)C(=O)O)C(C)(C)[C@@H]5CC[C@@]4(C)[C@]3(C)CC[C@@]2([C@@H](O)c2nnc(-c3ccc(Cl)cc3)n2CCN(C)C)CC1=O [Compound 165-1]	< 2	–	–	–
CC(C)C1=C2[C@H]3CC[C@@H]4[C@@]5(C)CC[C@H](OC(=O)CC(C)(C)C(=O)O)C(C)(C)[C@@H]5CC[C@@]4(C)[C@]3(C)CC[C@@]2(Cc2nnc(-c3ccc(Br)cn3)o2)CC1=O [Compound 22-14]	–	≤ 0.17	200	–
CC(C)C1=C2[C@H]3CC[C@@H]4[C@@]5(C)CC[C@H](OC(=O)CC(C)(C)C(=O)O)C(C)(C)[C@@H]5CC[C@@]4(C)[C@]3(C)CC[C@@]2(Cc2nnc(-c3ccc(Cl)cc3)n2CCN)CC1=O [Compound 116-4]	–	2.5	33	–
CC(C)C1=C2[C@H]3CC[C@@H]4[C@@]5(C)CC[C@H](OC(=O)CC(C)(C)C(=O)O)C(C)(C)[C@@H]5CC[C@@]4(C)[C@]3(C)CC[C@@]2(c2cc(=O)n(CC(=O)N(C)C)n2C)CC1=O [Compound 91-8]	–	3.3	48	–
CC(C)C1=C2[C@H]3CC[C@@H]4[C@@]5(C)CC[C@H](OC(=O)CC(C)(C)C(=O)O)C(C)(C)[C@@H]5CC[C@@]4(C)[C@]3(C)CC[C@@]2(Cc2nnc(-c3ccc(C#N)cn3)o2)CC1=O [Compound 22-15]	–	2.1	34	–
CNCCn1c(C[C@@]23CC[C@]4(C)[C@H](CC[C@@H]5[C@@]6(C)CC[C@H](OC(=O)CC(C)(C)C(=O)O)C(C)(C)[C@@H]6CC[C@]54C)C2=C(C(C)C)C(=O)C3)nnc1-c1ccc(Cl)cc1 [Compound 116-2]	–	4.8	27	–
CC(C)C1=C2[C@H]3CC[C@@H]4[C@@]5(C)CC[C@H](OC(=O)CC(C)(C)C(=O)O)C(C)(C)[C@@H]5CC[C@@]4(C)[C@]3(C)CC[C@@]2(c2cc(=O)n(-c3ccc(F)cc3)n2C)CC1=O [Compound 98-3]	–	0.46	42	–
CC(C)C1=C2[C@H]3CC[C@@H]4[C@@]5(C)CC[C@H](OC(=O)CC(C)(C)C(=O)O)C(C)(C)[C@@H]5CC[C@@]4(C)[C@]3(C)CC[C@@]2(Cc2cc(=O)n(-c3ccc(Cl)cc3)n2C)CC1=O [98′-1]	–	≤ 0.17	62	–
CC(C)C1=C2[C@H]3CC[C@@H]4[C@@]5(C)CC[C@H](OC(=O)CC(C)(C)C(=O)O)C(C)(C)[C@@H]5CC[C@@]4(C)[C@]3(C)CC[C@@]2(c2cc(=O)n(-c3ccc(Cl)cc3)n2C)CC1=O [Compound 98-1]	–	1.6	24	–
CC(C)C1=C2[C@H]3CC[C@@H]4[C@@]5(C)CC[C@H](OC(=O)CC(C)(C)C(=O)O)C(C)(C)[C@@H]5CC[C@@]4(C)[C@]3(C)CC[C@@]2(c2cnc(-c3ccc(Cl)cc3)o2)CC1=O [Compound 77]	–	159	200	–
CC(C)C1=C2[C@H]3CC[C@@H]4[C@@]5(C)CC[C@H](OC(=O)CC(C)(C)C(=O)O)C(C)(C)[C@@H]5CC[C@@]4(C)[C@]3(C)CC[C@@]2(c2nnc(-c3ccccc3)o2)CC1=O [Compound 27-2]	–	2	100	–
CC(C)C1=C2[C@H]3CC[C@@H]4[C@@]5(C)CC[C@H](OC(=O)CC(C)(C)C(=O)O)C(C)(C)[C@@H]5CC[C@@]4(C)[C@]3(C)CC[C@@]2([C@@H](O)c2nnc(-c3ccc(Cl)cc3)o2)CC1=O [Compound 127-1]	–	1.6	200	–
CC(C)C1=C2[C@H]3CC[C@@H]4[C@@]5(C)CC[C@H](OC(=O)CC(C)(C)C(=O)O)C(C)(C)[C@@H]5CC[C@@]4(C)[C@]3(C)CC[C@@]2(c2c(Cl)c(=O)n(-c3ccc(Cl)cc3)n2CCN)CC1=O [Compound 155-2]	< 2	–	–	–
CC(C)C1=C2[C@H]3CC[C@@H]4[C@@]5(C)CC[C@H](OC(=O)CC(C)(C)C(=O)O)C(C)(C)[C@@H]5CC[C@@]4(C)[C@]3(C)CC[C@@]2(c2nnc(-c3ccc(Cl)cc3)o2)CC1=O [Compound 27-1]	–	3.3	50	–
CC(C)C1=C2[C@H]3CC[C@@H]4[C@@]5(C)CC[C@H](OC(=O)CC(C)(C)C(=O)O)C(C)(C)[C@@H]5CC[C@@]4(C)[C@]3(C)CC[C@@]2(Cc2cc(=O)n(-c3ccc(Cl)cn3)n2C)CC1=O [98′-2]	–	0.37	56	–
CC(C)C1=C2[C@H]3CC[C@@H]4[C@@]5(C)CC[C@H](OC(=O)CC(C)(C)C(=O)O)C(C)(C)[C@@H]5CC[C@@]4(C)[C@]3(C)CC[C@@]2(c2nnc(-c3cccnc3)o2)CC1=O [Compound 27-9]	–	8.8	200	–
CC(C)C1=C2[C@H]3CC[C@@H]4[C@@]5(C)CC[C@H](OC(=O)CC(C)(C)C(=O)O)C(C)(C)[C@@H]5CC[C@@]4(C)[C@]3(C)CC[C@@]2(c2c(Cl)c(=O)n(-c3ccc(Cl)cc3)n2CCN(C)C)CC1=O [Compound 156-2]	< 2	–	–	–
CC(C)C1=C2[C@H]3CC[C@@H]4[C@@]5(C)CC[C@H](OC(=O)CC(C)(C)C(=O)O)C(C)(C)[C@@H]5CC[C@@]4(C)[C@]3(C)CC[C@@]2(c2nnc(Nc3ccc(Cl)cc3)o2)CC1=O [Compound 133-1]	–	10	21	–
CC(C)C1=C2[C@H]3CC[C@@H]4[C@@]5(C)CC[C@H](OC(=O)CC(C)(C)C(=O)O)C(C)(C)[C@@H]5CC[C@@]4(C)[C@]3(C)CC[C@@]2(Cc2nnc(Cc3ccc(Cl)cc3)o2)CC1=O [Compound 33]	–	1.6	18	–
CC(C)C1=C2[C@H]3CC[C@@H]4[C@@]5(C)CC[C@H](OC(=O)CC(C)(C)C(=O)O)C(C)(C)[C@@H]5CC[C@@]4(C)[C@]3(C)CC[C@@]2(c2cc(=O)n(Cc3ccc(Cl)cc3)n2C)CC1=O [91′-1]	–	–	22	–
CC(C)C1=C2[C@H]3CC[C@@H]4[C@@]5(C)CC[C@H](OC(=O)CC(C)(C)C(=O)O)C(C)(C)[C@@H]5CC[C@@]4(C)[C@]3(C)CC[C@@]2(c2cc(=O)n(CCN(C)C)n2C)CC1 [Compound 89-3]	< 5	–	–	–
CC(C)C1=C2[C@H]3CC[C@@H]4[C@@]5(C)CC[C@H](OC(=O)CC(C)(C)C(=O)O)C(C)(C)[C@@H]5CC[C@@]4(C)[C@]3(C)CC[C@@]2(c2c(Cl)c(=O)n(-c3ccc(Cl)cc3)n2C)CC1=O [Compound 98-8]	< 2	–	–	–
C=C(C)[C@@H]1CC[C@]2(C(=O)O)CC[C@]3(C)[C@H](CC[C@@H]4[C@@]5(C)CC[C@H](OC(=O)CC(C)(C)C(=O)O)C(C)(C)[C@@H]5CC[C@]43C)[C@@H]12 [BVM, Bevirimat, reference compound]	–	–	–	5
CC(C)C1=C2[C@H]3CC[C@@H]4[C@@]5(C)CC[C@H](OC(=O)CC(C)(C)C(=O)O)C(C)(C)[C@@H]5CC[C@@]4(C)[C@]3(C)CC[C@@]2(c2cc(=O)n(Cc3ccc(Cl)cc3)n2C)CC1=O [Compound 91-1]	–	–	41	–
CC(C)C1=C2[C@H]3CC[C@@H]4[C@@]5(C)CC[C@H](OC(=O)CC(C)(C)C(=O)O)C(C)(C)[C@@H]5CC[C@@]4(C)[C@]3(C)CC[C@@]2([C@@H](O)c2nnc(-c3ccc(Cl)cc3)n2CCN)CC1=O [Compound 164-1]	< 2	–	–	–

— US9428542B2, “Lupane triterpenoid derivatives and pharmaceutical use thereof” (priority 2012, dated 2016)
